According to publication PMC7919472, “Insulin–Mimetic Dihydroxanthyletin-Type Coumarins from Angelica decursiva with Protein Tyrosine Phosphatase 1B and α-Glucosidase Inhibitory Activities and Docking Studies of Their Molecular Mechanisms” (Antioxidants, 2021):

Tests used:
[1] = system: PTP1B expression in insulin-resistant HepG2 cells; experiment: PTP1B expression level by Western blot; assay type: cell-based, human
Experimental: (§1) With minor modifications, the insulin resistant HepG2 cell model was developed according to the previous method. In short, in 96-well plats (2 × 10^5 cells/well), HepG2 cells were cultured. When they reached a confluence, 10^−6 M insulin was treated for 24 h on serum-free MEM to induce insulin resistance, then the cells were incubated for 30 min with 100 nM insulin and harvested for assays as described below.
Insulin-resistant HepG2 cells (5 × 10^5 cells/well) were treated for 24 h in 6-well plates with different concentrations of coumarins. The cells were washed with ice-cold PBS three times, collected, then lysed with a sample buffer [50 mM (4-(2-hydroxyethyl)-1-piperazineethanessulfonic acid) pH 7.5, 150 mM NaCl, 2.5 mM EDTA, 0.5% NP-40, 1 mM PMSF, 1 mM DTT, 0.2% aprotinin, 0.5% leupeptin, 20 mM NaF, and 1 mM Na3VO4] on ice after stimulation with 100 nM insulin at 37 °C for 30 min. Insoluble materials were extracted by centrifugation for 20 min at 25,000 × g after incubation for 30 min. An updated Bradford protein assay kit calculated the protein concentrations. Total protein (40 μg) was electrophoresed into a polyvinylidene difluoride (PVDF) membrane by use of a dodecyl sulfate-polyacrylamide gel electrophoresis (SDS-PAGE). In a blocking buffer, membranes were blocked (5% skim milk in Tris-buffered saline containing 0.1% Tween 20 (TBST) and incubated overnight at 4 °C with primary antibodies, followed by incubation at room temperature for 4 h with suitable secondary antibodies. Three times for 30 min with TBST, the membranes were washed. The Supersignal West Pico chemiluminescence substrate (Pierce, Rockford, IL, USA) has been used to visualize the protein bands and pictured on X-ray film (Kodak, Rochester, NY, USA) according to the manufacturer’s instructions. Using CS analyzer software (Atto Corp., Tokyo, Japan), bands were scanned and quantitated and the control was set to 1. As the internal control, β-actin was used. For determining the molecular weights of protein bands, prestained blue protein markers were used. Comparisons were made between mean band densities in same gels. Autoradiography visualized protein bands and measured the intensities using Quantity One software (Bio-Rad Laboratories, Hercules, CA, USA).

[2] = Inhibition of ONOO−-mediated albumin (protein tyrosine) nitration, Western blot; assay type: biochemical
Experimental: ONOO^−-mediated protein tyrosine nitration was evaluated with minor modifications by using in our previously reported method.

yeast α-glucosidase = yeast α-glucosidase (Saccharomyces cerevisiae, UniProt P53341); experiment: α-Glucosidase inhibitory assay with pNPG substrate, with Dixon and Lineweaver-Burk kinetics; assay type: biochemical; conditions: determined by Dixon and Lineweaver-Burk plots
Sequence of yeast α-glucosidase (P53341 whole entry): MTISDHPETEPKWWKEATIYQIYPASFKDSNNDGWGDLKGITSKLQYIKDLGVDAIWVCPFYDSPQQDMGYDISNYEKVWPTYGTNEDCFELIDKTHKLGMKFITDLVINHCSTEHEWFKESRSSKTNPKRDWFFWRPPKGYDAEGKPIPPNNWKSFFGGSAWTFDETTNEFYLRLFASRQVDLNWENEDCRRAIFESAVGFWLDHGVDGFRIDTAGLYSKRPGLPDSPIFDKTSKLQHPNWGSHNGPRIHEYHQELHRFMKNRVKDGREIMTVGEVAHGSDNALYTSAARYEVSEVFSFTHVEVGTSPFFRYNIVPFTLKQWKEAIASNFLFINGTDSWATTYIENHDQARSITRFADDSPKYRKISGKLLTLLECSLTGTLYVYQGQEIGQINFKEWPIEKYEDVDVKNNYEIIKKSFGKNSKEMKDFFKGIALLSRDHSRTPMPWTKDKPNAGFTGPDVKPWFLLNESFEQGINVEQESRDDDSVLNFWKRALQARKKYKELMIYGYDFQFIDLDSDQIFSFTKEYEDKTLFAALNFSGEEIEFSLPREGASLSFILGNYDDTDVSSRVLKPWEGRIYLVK
Experimental: The enzyme inhibition analysis was carried out using the technique previously reported in our paper. The absorbance was recorded at 405 nm immediately afterward using the microplate spectrophotometer (Molecular Devices, Sunnyvale, CA, USA).
(§2) Two kinetic methods using Lineweaver-Burk and Dixon plots have been complemented for the determination of the kinetic process. PTP1B inhibition mode was calculated at different pNPP substrate concentration (0.5, 1.0, and 2.0 mM) in the absence or presence of different coumarins test concentrations (0, 0.8, 4.0, and 20.0 µM for (+)-trans-decursidinol; 0, 2.0, 10.0, and 50 µM for Pd-C-I and Pd-C-II; 0, 4.0, 20.0, and 100 µM for Pd-C-III) using Lineweaver-Burk and Dixon plots. By monitoring the effects of different concentrations of the substrates in the Dixon plots (single reciprocal plot), each enzymatic inhibition of test coumarins was assessed. Additionally, in the presence of different concentrations of substrate: 2.5, 1.25, and 0.625 mM pNPG, the Lineweaver-Burk and Dixon plots for α-glucosidase inhibition of coumarins were also performed. The test concentrations of the coumarins in the α-glucosidase kinetic analysis were as follows 0, 7.81, 15.62, 31.25, and 62.5 µM for (+)-trans-decursidinol, Pd-C-I, and Pd-C-II; 0, 15.62, 31.25, 62.5, and 125 µM for Pd-C-III. The PTP1B and α-glucosidase assay methods were the same for both enzymatic procedures. The inhibition constants (Ki) were calculated by interpretation of the Dixon plots, where the value of the x-axis means -Ki.

[3] = system: insulin-resistant HepG2 cells; experiment: 2-NBDG glucose uptake assay; assay type: cell-based, human; conditions: 24 h, insulin-stimulated 2-NBDG uptake
Experimental: as §1
In accordance with a previous method the glucose uptake assay was established with some modifications. Briefly, HepG2 cells were cultured in 96-well plate to confluence and then treated with 10^−6 M insulin for 24 h to induce insulin resistance (based on a 49% decrease in glucose uptake) (data not shown). Different coumarins (5–40 µM) or 10 µM metformin (non-cytotoxic concentration) concentrations were added and incubated for 24 h, followed by 100 nM insulin and cells incubation for 30 min, respectively. 2-NBDG uptake was measured following this incubation. The cells were incubated with 40 μM of 2-NBDG (dissolved in PBS with 1% BSA) for 20 min. The cells were washed thrice with ice-cold PBS to avoid the reaction, and the fluorescence intensity of 2-NBDG was calculated at 485 nm of excitation and 528 nm of emission on a microplate reader (Bio-Tek Instruments Inc., Winooski, VT, USA). Five replication wells have been set up, and three times each experiment has been replicated.

[4] = Total ROS generation inhibitory activity (rat kidney homogenate, DCFH-DA); assay type: biochemical; conditions: mean ± SEM of triplicate
Experimental: The generation of ROS was calculated using the ROS-sensitive fluorescence indicator (DCFH-DA) of 7-dichlorofluorescein diacetate. In a 50 mM potassium phosphate buffer, rat kidney homogenates (Tissue bank from Pusan National University, Busan, S. Korea) were prepared from the kidneys of newly killed male Wistar rats weighing between 150–200 g and 10 μg of each test sample was applied to 190 μL of kidney post mitochondrial fraction. The mixture was loaded in a potassium phosphate buffer with 50 μL of DCFH-DA (12.5 mM) and shaken for 5 min. On a microplate fluorescence spectrophotometer FLX 800 (Bio-Tek Instruments Inc., Winooski, UT, USA), the fluorescence of 2′,7′-dichlorofluorescein (DCF), the oxidation product from DCFH-DA, was measured at an excitation wavelength of 485 nm and an emission wavelength of 530 nm for 30 min. As a positive control, Trolox, was used.

[5] = system: t-BHP-treated HepG2 cells; experiment: Intracellular ROS level in t-BHP-treated HepG2 cells (DCFH-DA); assay type: cell-based, human; conditions: 200 μM t-BHP; for ROS generation: 10–40 μM
Experimental: A fluorometric assay was used to measure the intracellular ROS level in HepG2 cells applying the oxidant-sensitive fluorescence probe 2, DCFH-DA [47]. In order to determine the extent of intracellular ROS scavenging activity, HepG2 cells were seeded into black 96-well plates at a density of 2.0 × 10^5 cells/well and incubated with coumarins at a concentrations range of 2.5–40 µM for 1 h. To induce ROS production, cells were subsequently exposed to 200 µM tert-butyl hydroperoxide (t-BHP) for 30 min and were then incubated for 30 min with DCFH-DA (20 μM). At an excitation wavelength of 485 nm and an emission wavelength of 530 nm, the resulting fluorescence intensities were measured using a fluorescence microplate reader (FL × 800; Bio-Tek Instruments Inc., Winooski, UT, USA).

[6] = target: T1, PTP1B (human recombinant) (Homo sapiens, UniProt P18031); experiment: PTP1B inhibitory assay with pNPP substrate, with Dixon and Lineweaver-Burk kinetics; assay type: biochemical; conditions: for Protein Tyrosine Phosphatase 1B Inhibition Type: determined by Dixon and Lineweaver-Burk plots; for Ki: determined by the Dixon plot, read-out: Protein Tyrosine Phosphatase 1B Ki Value; for IC50: pNPP substrate, mean ± SEM of triplicate, read-out: Protein Tyrosine Phosphatase 1B IC50
T1 construct: purchased Biomol International LP (Plymouth Meeting, Pennsylvania, USA)
T1 sequence (P18031 1-435): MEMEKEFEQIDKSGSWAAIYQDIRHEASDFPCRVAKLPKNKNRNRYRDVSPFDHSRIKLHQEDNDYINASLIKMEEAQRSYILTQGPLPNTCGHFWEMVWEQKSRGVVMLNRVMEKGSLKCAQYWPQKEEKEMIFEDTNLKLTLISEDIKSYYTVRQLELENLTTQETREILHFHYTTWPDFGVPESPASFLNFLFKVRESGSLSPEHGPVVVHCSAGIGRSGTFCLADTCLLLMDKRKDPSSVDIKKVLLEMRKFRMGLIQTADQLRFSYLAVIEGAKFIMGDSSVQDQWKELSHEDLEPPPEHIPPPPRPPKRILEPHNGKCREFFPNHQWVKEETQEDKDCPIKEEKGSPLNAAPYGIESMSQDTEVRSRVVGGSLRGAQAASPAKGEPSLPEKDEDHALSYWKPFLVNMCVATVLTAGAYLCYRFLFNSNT
Experimental: The inhibitory activity of PTP1B has been tested using pNPP previously reported in our paper. The amount of p-nitrophenyl produced after enzymatic dephosphorylation of pNPP was calculated using a microplate spectrophotometer (Molecular Devices) to calculate absorbance at 405 nm.
as §2

[7] = ONOO− scavenging activity (DHR 123); assay type: biochemical; conditions: mean ± SEM of triplicate
Experimental: ONOO^− scavenging activity was measured using a slight modification of the method reported by Kooy’s that monitors output of fluorescent rhodamine 123 from non-fluorescent DHR 123 in the presence of ONOO^−. The rhodamine buffer (pH 7.4) consisted of 90 mM sodium chloride, 50 mM sodium phosphate dibasic, 5 mM potassium chloride, 100 µM diethylenetriaminepentaacetic acid and 50 mM sodium phosphate monobasic. DHR 123 final concentration was 5 µM. The buffer used in this assay was prepared and put on ice before use. In 10% DMSO, the samples were dissolved and authentic ONOO^− (10 µM) dissolved in 0.3 N sodium hydroxide was added. Background and final fluorescent intensities were measured after 5 min. The fluorescence intensity of the oxidized DHR 123 was measured with a microplate fluorescence reader (Bio-Tek Instruments, Inc., FLx 800, Winooski, UT, USA) on the excitation and emission wavelengths of 480 and 530 nm, respectively. As a standard control, L-penicillamine was used.

[8] = Homo sapiens, HepG2, pretreated 1 h, read-out: ROS production, inhibition

| Compound | PTP1B expression ([1]; concentration not given) | ONOO−-mediated albumin nitration ([2]; pretreatment at 12.5–100 µM) | α-Glucosidase Inhibition Type (yeast α-glucosidase) | relative glucose uptake percentage ([3]; 40 µM) | IC50 [4] | ROS generation [5] | Protein Tyrosine Phosphatase 1B Inhibition Type [6] | Ki [6] | IC50 [6] | IC50 [7] | PTP1B expression ([1]; at 10 and 15 µM, 24 h) | ONOO−-mediated albumin nitration ([2]; pretreatment at 5–40 µM) | relative glucose uptake percentage ([3]; 15 µM) | inhibition at 5 µM ([5]; Homo sapiens, HepG2, 5 μM, pretreated 1 h, read-out: ROS production, inhibition) | inhibition at 10 µM [5, 8] | inhibition at 15 µM ([5]; Homo sapiens, HepG2, 15 μM, pretreated 1 h, read-out: ROS production, inhibition) | fold more active than decursinol ([6]; versus decursinol of the earlier work, enzyme not named in the sentence (PTP1B and α-glucosidase discussed)) | relative glucose uptake percentage ([3]; 10 µM) | PTP1B expression ([1]; at 20 and 40 µM, 24 h) |
| --- | --- | --- | --- | --- | --- | --- | --- | --- | --- | --- | --- | --- | --- | --- | --- | --- | --- | --- | --- |
| C/C=C\C(=O)O[C@H]1[C@H](OC(C)=O)c2cc3ccc(=O)oc3cc2OC1(C)C [Pd-C-III] | significantly downregulated PTP1B’s expression | pronounced dose-dependent inhibition | Noncompetitive | 117% | 9.69 ± 0.21 µM | significantly inhibited ROS generation | Mixed | 16 µM | 12 ± 0.43 µM | 1.44 ± 0.22 µM |  |  |  |  |  |  |  |  |  |
| CC(C)(S)[C@H](N)C(=O)O [L-Penicillamine, L-penicillamine, reference compound] |  |  |  |  |  |  |  |  |  | 1.86 ± 0.11 µM |  |  |  |  |  |  |  |  |  |
| CC1(C)Oc2cc3oc(=O)ccc3cc2[C@@H](O)[C@@H]1O [(+)-trans-decursidinol] |  |  | Competitive |  | 9.77 ± 0.32 µM |  | Competitive | 2.84 µM | 2.33 ± 0.07 µM | 4.57 ± 0.21 µM | diminished PTP1B’s expression | significantly inhibited in a concentration-dependent manner | 125% | 75.5% | 57.5% | 43.4% | 25 times |  |  |
| CN(C)C(=N)N=C(N)N [metformin, reference compound] |  |  |  |  |  |  |  |  |  |  |  |  |  |  |  |  |  | 129% |  |
| CC(C)=CC(=O)O[C@@H]1c2cc3ccc(=O)oc3cc2OC(C)(C)[C@H]1O [Pd-C-II] |  | pronounced dose-dependent inhibition | Mixed | 120% | 10.8 ± 0.73 µM | significantly inhibited ROS generation | Competitive | 9.72 µM | 6.17 ± 0.31 µM | 3.77 ± 0.15 µM |  |  |  |  |  |  |  |  | downregulated PTP1B’s expression |
| Cc1c(C)c2c(c(C)c1O)CCC(C)(C(=O)O)O2 (centres unmarked) [Trolox, trolox, reference compound] |  |  |  |  | 3.29 ± 0.26 µM |  |  |  |  |  |  |  |  |  | ~49% |  |  |  |  |
| CC(C)=CC(=O)O[C@H]1[C@H](O)c2cc3ccc(=O)oc3cc2OC1(C)C [Pd-C-I] |  | pronounced dose-dependent inhibition | Mixed | 128% | 6.32 ± 0.41 µM | significantly inhibited ROS generation | Competitive | 6.21 µM | 4.32 ± 0.12 µM | 1.82 ± 0.44 µM |  |  |  |  |  |  |  |  | downregulated PTP1B’s expression |
